# Experimental data: patent US6743940B2, “4-aminobut-2-ynecarboxylic acid derivatives” (Ciba Specialty Chemicals Corporation, priority 2000, dated 2004)
# Read-outs that look alike come from different tables or passages of the source.
# What was measured:
# Test in all cases: Minimum Inhibitory Concentration (MIC) in the agar incorporation test
# Type in all cases: cell-based
# [1] = test system: Staphylococcus aureus ATCC 9144; details: 24 hours at 37° C.
# Protocol: (§1) Determination of the Minimum Inhibitory Concentration (MIC) in the Agar Incorporation Test (MIC Test) [table] Test Principle 0.3 ml of each dilution step is mixed with 15 ml of still liquid nutrient medium. After the nutrient medium has solidified, 10 μl of each of the following organism dilutions of the test strains in 0.85% NaCl solution is dotted onto the agar medium: [table] The plates are incubated for 24 hours at 37° C. (A. niger 3 days at 28° C.) and then the highest dilution (lowest concentration) of the test substance at which no more growth is observed (corresponds to the MIC) is determined.
# [2] = test system: Aspergillus niger ATCC 6275; details: ATCC6275, 72 h, 3 days at 28° C.
# Protocol: as §1
# [3] = test system: Pseudomonas aeruginosa CIP A-22; details: CIPA22, Table 1, casein-soybean flour-peptone agar, 24 hours at 37° C., dilution series 1000 ppm to 10 ppm
# Protocol: as §1
# [4] = test system: Escherichia coli NCTC 8196; details: NCTC8196, Table 1, casein-soybean flour-peptone agar, 24 hours at 37° C., dilution series 1000 ppm to 10 ppm
# Protocol: as §1
# [5] = test system: Candida albicans ATCC 10231; details: ATCC10231, Table 1, casein-soybean flour-peptone agar, 24 hours at 37° C., dilution series 1000 ppm to 10 ppm
# Protocol: as §1
# [6] = ATCC9144, Table 2, MIC test, read-out: Further microbiological test results, Staphylococcus aureus ATCC 9144
# [7] = Table 2, MIC test, read-out: Further microbiological test results, Aspergillus niger ATCC 6275
Compound,"MIC [1, 6]","MIC [2, 7]",further results
CCCCN(CC#CC(=O)OC)c1cccc(C)c1 [Compound of formula (113)],125 µg/mL,,
CCOC(=O)C#CCNc1ccccc1 [Compound of formula (116)],125 µg/mL,125 µg/mL,
CCCN(CC#CC(=O)OC)c1cccc(C)c1 [Compound of formula (106)],125 µg/mL,125 µg/mL,
CCN(CC#CC(=O)OC)c1cccc(C)c1 [Compound of formula (115)],,8 µg/mL,
CCOC(=O)C#CCNc1ccc(OC)cc1 [Compound of formula (117)],500 µg/mL,500 µg/mL,
"COC(=O)CC#CCN(C)c1ccccc1 [Compound of formula (101), 4-(N-methyl-phenylamino)-but-2-yne-carboxylic Acid Methyl Ester]",,,"MIC [3]: > 1000 µg/mL; MIC ([1]; ATCC9144, Table 1, casein-soybean flour-peptone agar, dilution series 1000 ppm to 10 ppm, read-out: Minimum Inhibitory Concentration (MIC), Staphylococcus aureus ATCC 9144): 62.5 µg/mL; MIC [4]: 125 µg/mL; MIC ([2]; Table 1, Sabouraud 4% glucose-agar, dilution series 1000 ppm to 10 ppm, read-out: Minimum Inhibitory Concentration (MIC), Aspergillus niger ATCC 6275): 62.5 µg/mL; MIC [5]: 62.5 µg/mL"
CCCN(CC#CC(=O)OCC)c1cccc(OC)c1 [Compound of formula (109)],1000 µg/mL,,

# Further lines, with some results ahead:
"MIC [1, 6]","MIC [2, 7]",Compound,further results
63 µg/mL,,CCCN(CC#CC(=O)OC)c1ccc(OC)cc1 [Compound of formula (111)],
125 µg/mL,125 µg/mL,COC(=O)C#CCNc1ccc(C)cc1 [Compound of formula (118)],
63 µg/mL,125 µg/mL,CCCCCN(CC#CC(=O)OC)c1ccccc1 [Compound of formula (110)],
63 µg/mL,,CCCCCN(CC#CC(=O)OC)c1cccc(OC)c1 [Compound of formula (112)],
63 µg/mL,63 µg/mL,CCCCN(CC#CC(=O)OC)c1ccccc1 [Compound of formula (107)],
60 µg/mL,60 µg/mL,CCN(CC#CC(=O)OC)c1ccc(OC)cc1 [Compound of formula (114)],
63 µg/mL,125 µg/mL,CCCN(CC#CC(=O)OC)c1cccc(OC)c1 [Compound of formula (108)],
